Values joined by “and” are separate entries in the source; they are usually repeats but may differ in a detail not shown here. Identical values can stand only once. Inconclusive results and toxic doses are left out. Rule as the data show it: active = T/C of 150% or more; inactive = T/C below 125%.
System: L1210 leukemia ip in BDF1 mice, survival T/C
Experiment: NCI In Vivo Anticancer Drug Screen. Data for tumor model L1210 Leukemia (intraperitoneal) in B6D2F1 (BDF1) mice
Details: endpoint: mean survival time, higher = longer survival
How it was run: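 Survival endpoint. Drug-treated group vs vehicle group, expressed as T divided by C. Tumor passaged by transplantation.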

[1] = dose: 100.0 mg/kg/injection, schedule: Q01DX009 (ip), vehicle: saline
[2] = dose: 200.0 mg/kg/injection, schedule: Q01DX009 (ip), vehicle: saline
[3] = dose: 400.0 mg/kg/injection, schedule: Q01DX009 (ip), vehicle: saline
[4] = dose: 100.0 mg/kg/injection, schedule: Q04DX003 (ip), vehicle: Klucel (hydroxypropylcellulose) (HPC)
[5] = dose: 200.0 mg/kg/injection, schedule: Q04DX003 (ip), vehicle: Klucel (hydroxypropylcellulose) (HPC)
[6] = dose: 400.0 mg/kg/injection, schedule: Q04DX003 (ip), vehicle: Klucel (hydroxypropylcellulose) (HPC)
[7] = dose: 100.0 mg/kg/injection, schedule: Q01DX009 (ip), vehicle: saline with Tween-80
[8] = dose: 100.0 mg/kg/injection, schedule: Q04DX003 (ip), vehicle: saline with Tween-80
[9] = dose: 200.0 mg/kg/injection, schedule: Q01DX009 (ip), vehicle: saline with Tween-80
[10] = dose: 200.0 mg/kg/injection, schedule: Q04DX003 (ip), vehicle: saline with Tween-80
[11] = dose: 400.0 mg/kg/injection, schedule: Q01DX009 (ip), vehicle: saline with Tween-80
[12] = dose: 400.0 mg/kg/injection, schedule: Q04DX003 (ip), vehicle: saline with Tween-80
[13] = dose: 100.0 mg/kg/injection, schedule: Q04DX003 (ip), vehicle: saline
[14] = dose: 100.0 mg/kg/injection, schedule: Q04DX002 (ip), vehicle: saline
[15] = dose: 200.0 mg/kg/injection, schedule: Q04DX002 (ip), vehicle: saline
[16] = dose: 100.0 mg/kg/injection, schedule: Q01DX001 (ip), vehicle: saline

Measured: T/C

CCOC(=O)NO
inactive: dose: 27.0 mg/kg/injection, schedule: Q03HX024 (ip), vehicle: saline 95 % of control | dose: 40.0 mg/kg/injection, schedule: Q03HX024 (ip), vehicle: saline 97 % of control | dose: 50.0 mg/kg/injection, schedule: Q01DX Z (ip), vehicle: carboxymethylcellulose (CMC) 93 % of control | dose: 60.0 mg/kg/injection, schedule: Q03HX024 (ip), vehicle: saline 100 % of control | dose: 90.0 mg/kg/injection, schedule: Q03HX024 (ip), vehicle: saline 100 % of control | [1] 97 % of control and 98 % of control | dose: 100.0 mg/kg/injection, schedule: Q01DX Z (ip), vehicle: carboxymethylcellulose (CMC) 109 % of control | dose: 120.0 mg/kg/injection, schedule: Q01DX009 (ip), vehicle: saline 110 % of control | dose: 135.0 mg/kg/injection, schedule: Q03HX024 (ip), vehicle: saline 124 % of control | dose: 180.0 mg/kg/injection, schedule: Q01DX009 (ip), vehicle: saline 119 % of control | [2] 95 % of control and 100 % of control | [3] 102 % of control and 107 % of control | dose: 600.0 mg/kg/injection, schedule: Q01DX009 (ip), vehicle: saline 117 % of control

CC(=O)NC1CCCC(CC2CCCCC2)C1 (centres undefined)
inactive: [4] 103 % of control | [5] 93 % of control | [6] 98 % of control

CCCOC(CCC(=O)NC(C)(C)C)CC(=O)NC(C)(C)C (centres undefined)
inactive: dose: 100.0 mg/kg/injection, schedule: Q01DX009 (ip), vehicle: Klucel (hydroxypropylcellulose) (HPC) 95 % of control | [4] 103 % of control | dose: 200.0 mg/kg/injection, schedule: Q01DX009 (ip), vehicle: Klucel (hydroxypropylcellulose) (HPC) 90 % of control | [5] 97 % of control | dose: 400.0 mg/kg/injection, schedule: Q01DX009 (ip), vehicle: Klucel (hydroxypropylcellulose) (HPC) 90 % of control | [6] 93 % of control

Cc1c(Cl)cccc1NC(=O)Nc1ccc(S(N)(=O)=O)cc1
inactive: [7] 93 % of control and 97 % of control | dose: 100.0 mg/kg/injection, schedule: Q04DX002 (ip), vehicle: saline with Tween-80 101 % of control and 110 % of control | [8] 100 % of control | [9] 104 % of control and 105 % of control | dose: 200.0 mg/kg/injection, schedule: Q04DX002 (ip), vehicle: saline with Tween-80 101 % of control and 104 % of control | [10] 95 % of control | [11] 93 % of control and 101 % of control | dose: 400.0 mg/kg/injection, schedule: Q04DX002 (ip), vehicle: saline with Tween-80 93 % of control and 95 % of control | [12] 92 % of control

COC(=O)C1C(O)C(C)C(O)OC1C(C)C(O)C(C)/C=C\C=C(/C)C(=O)Nc1c(C)c(OC(C)=O)c2c(c1O)C(=O)C(C)=C1OCOC(/C(C)=C/C(C)=O)=C12 (centres undefined)
inactive: [13] 95 % of control | dose: 200.0 mg/kg/injection, schedule: Q04DX003 (ip), vehicle: saline 102 % of control | dose: 400.0 mg/kg/injection, schedule: Q04DX003 (ip), vehicle: saline 93 % of control

O=C(CCCl)Nc1ccc(S(=O)(=O)Nc2nccs2)cc1
inactive: dose: 100.0 mg/kg/injection, schedule: Q01DX001 (ip), vehicle: other 101 % of control | dose: 200.0 mg/kg/injection, schedule: Q01DX001 (ip), vehicle: other 95 % of control | dose: 400.0 mg/kg/injection, schedule: Q01DX001 (ip), vehicle: other 97 % of control

CCCN(CCC)/N=N/c1nc[nH]c1C(N)=O
inactive: dose: 100.0 mg/kg/injection, schedule: Q01DX001 (ip), vehicle: saline with Tween-80 95 % of control | [7] 97 % of control | [8] 101 % of control | dose: 200.0 mg/kg/injection, schedule: Q01DX001 (ip), vehicle: saline with Tween-80 98 % of control | [9] 106 % of control | [10] 104 % of control | dose: 400.0 mg/kg/injection, schedule: Q01DX001 (ip), vehicle: saline with Tween-80 113 % of control | [12] 112 % of control

Cn1cc([N+](=O)[O-])c2ccccc2c1=O
inactive: [4] 109 % of control | [5] 120 % of control

CC(C)(C(=O)O)c1ccc(-c2ccccc2)cc1
inactive: [8] 102 % of control | [10] 97 % of control | [12] 106 % of control

Cc1cc(I)ccc1NC(=S)Nc1ccccc1F
inactive: [8] 93 % of control | [10] 105 % of control

Cc1cn(C2CC(O)C(COP(=O)(N3CC3)N3CC3)O2)c(=O)[nH]c1=O (centres undefined)
inactive: dose: 50.0 mg/kg/injection, schedule: Q04DX002 (ip), vehicle: saline 107 % of control | [14] 100 % of control | [15] 94 % of control

N#CC(C#N)=Cc1ccc2ccc3cccc4ccc1c2c34
inactive: [4] 91 % of control | [5] 93 % of control | [6] 93 % of control

[O-][n+]1ccc(-c2ccccc2)cc1
inactive: [14] 107 % of control | [15] 96 % of control

FC(F)(F)C(Cl)Br (centres undefined)
inactive: dose: 25.0 mg/kg/injection, schedule: Q04DX003 (ip), vehicle: saline 106 % of control | dose: 50.0 mg/kg/injection, schedule: Q04DX003 (ip), vehicle: saline 104 % of control | [16] 101 % of control | [8] 98 % of control | [13] 97 % of control | dose: 150.0 mg/kg/injection, schedule: Q04DX003 (ip), vehicle: saline 98 % of control | [10] 97 % of control | dose: 225.0 mg/kg/injection, schedule: Q04DX003 (ip), vehicle: saline 101 % of control | dose: 335.0 mg/kg/injection, schedule: Q04DX003 (ip), vehicle: saline 96 % of control | [12] 106 % of control | dose: 1000.0 mg/kg/injection, schedule: Q05DX002 (ip), vehicle: water 97 % of control | dose: 2000.0 mg/kg/injection, schedule: Q05DX002 (ip), vehicle: water 108 % of control

COc1ccc(C(=O)NCCc2ccccc2)cc1
inactive: [4] 96 % of control | [5] 105 % of control | [6] 104 % of control

CCO/C=N\c1c(C#N)c(CC#N)nn1C
inactive: dose: 100.0 mg/kg/injection, schedule: Q04DX002 (ip), vehicle: Klucel (hydroxypropylcellulose) (HPC) 102 % of control | dose: 200.0 mg/kg/injection, schedule: Q04DX002 (ip), vehicle: Klucel (hydroxypropylcellulose) (HPC) 98 % of control | dose: 400.0 mg/kg/injection, schedule: Q04DX002 (ip), vehicle: Klucel (hydroxypropylcellulose) (HPC) 102 % of control

Cc1ccc(NC(=O)OCCSC(=O)COc2ccc(Cl)cc2Cl)cc1
inactive: [7] 93 % of control | [9] 98 % of control | [11] 104 % of control

CCc1c(CO)cnc(C)c1OP(=O)(O)O
inactive: dose: 100.0 mg/kg/injection, schedule: Q01DX001 (ip), vehicle: carboxymethylcellulose (CMC) 100 % of control | dose: 200.0 mg/kg/injection, schedule: Q01DX001 (ip), vehicle: carboxymethylcellulose (CMC) 96 % of control | dose: 400.0 mg/kg/injection, schedule: Q01DX001 (ip), vehicle: carboxymethylcellulose (CMC) 102 % of control

CCCCCCCCSCCCCCCCCCCCSCCCCCCCC
inactive: dose: 100.0 mg/kg/injection, schedule: Q01DX001 (ip), vehicle: Klucel (hydroxypropylcellulose) (HPC) 102 % of control | dose: 200.0 mg/kg/injection, schedule: Q01DX001 (ip), vehicle: Klucel (hydroxypropylcellulose) (HPC) 92 % of control

N#CCC(NC(=O)OCc1ccccc1)C(=O)OCc1ccccc1 (centres undefined)
inactive: [7] 98 % of control | [8] 98 % of control | [9] 96 % of control | [10] 93 % of control | [11] 86 % of control | [12] 89 % of control

COC(=O)c1ccc(=O)n(C/C=C(\C)CCC=C(C)C)c1
inactive: [16] 95 % of control | [1] 104 % of control | dose: 200.0 mg/kg/injection, schedule: Q01DX001 (ip), vehicle: saline 97 % of control | [2] 90 % of control | dose: 400.0 mg/kg/injection, schedule: Q01DX001 (ip), vehicle: saline 101 % of control | [3] 101 % of control

O=C(O)c1cc([N+](=O)[O-])c(C(=O)O)c([N+](=O)[O-])c1
inactive: dose: 75.0 mg/kg/injection, schedule: Q01DX001 (ip), vehicle: other 94 % of control | dose: 150.0 mg/kg/injection, schedule: Q01DX001 (ip), vehicle: other 95 % of control | dose: 300.0 mg/kg/injection, schedule: Q01DX001 (ip), vehicle: other 96 % of control

CCOC(=O)C1CCC(=O)N1 (centres undefined)
inactive: [4] 96 % of control | [5] 98 % of control | [6] 98 % of control

From PubChem BioAssay AID248 (DTP/NCI, 2004)
